Assay results: US20050075358A1, “Methods for treating IGF1R-inhibitor induced hyperglycemia” (priority 2003, published 2005)

Assays:
[1] = molecular target: T1, insulin receptor (Rattus norvegicus, UniProt P15127); test: acute Oral Glucose Tolerance Test (OGTT) in rats; format: in vivo; conditions: fasted rats, oral single dose 50, 100 and 200 mpk 4 hrs prior to glucose challenge (1 g/kg); glucose at 30, 60, 90, 120 min by glucometer
T1 construct: from tissue; host or cells: whole living rats (in vivo)
Description: FIG. 1: The effect of inhibition of the insulin receptor was measured using an Oral Glucose Tolerance Test (OGTT). IGF1R Inhibitor A (4-[2-(3-chloro-phenyl)-2-hydroxy-ethylamino]-3-(4-methyl-6-morpholin-4-yl-1H-benzoimidazol-2-yl)-1H-pyridin-2-one) was tested in an acute OGTT study in rats: Fasted rats were orally dosed with Inhibitor A at 50, 100, and 200 mpk as a single dose for 4 hrs prior to glucose challenge (1 g/kg). Glucose was monitored at 30, 60, 90 and 120 minutes post glucose challenge using a glucometer.

[2] = acute OGTT study of combination therapy using Metformin and Inhibitor A in rats; format: in vivo
Description: FIG. 2: An acute OGTT study to determine the effects of combination therapy using Metformin and Inhibitor A on glucose-lowering was conducted in rats. In order to stabilize glucose levels, food was withdrawn for 1 hr prior to administration of any reagent. Glucose challenge was administered 2 hrs after the administration of Inhibitor A and plasma glucose monitored. Plasma glucose levels increased upon administration of the Inhibitor (200 mpk) to 150 mg/dl prior to glucose challenge and to 250 mg/dl post-glucose challenge.

T1 sequence (P15127 764-1383 limits assumed): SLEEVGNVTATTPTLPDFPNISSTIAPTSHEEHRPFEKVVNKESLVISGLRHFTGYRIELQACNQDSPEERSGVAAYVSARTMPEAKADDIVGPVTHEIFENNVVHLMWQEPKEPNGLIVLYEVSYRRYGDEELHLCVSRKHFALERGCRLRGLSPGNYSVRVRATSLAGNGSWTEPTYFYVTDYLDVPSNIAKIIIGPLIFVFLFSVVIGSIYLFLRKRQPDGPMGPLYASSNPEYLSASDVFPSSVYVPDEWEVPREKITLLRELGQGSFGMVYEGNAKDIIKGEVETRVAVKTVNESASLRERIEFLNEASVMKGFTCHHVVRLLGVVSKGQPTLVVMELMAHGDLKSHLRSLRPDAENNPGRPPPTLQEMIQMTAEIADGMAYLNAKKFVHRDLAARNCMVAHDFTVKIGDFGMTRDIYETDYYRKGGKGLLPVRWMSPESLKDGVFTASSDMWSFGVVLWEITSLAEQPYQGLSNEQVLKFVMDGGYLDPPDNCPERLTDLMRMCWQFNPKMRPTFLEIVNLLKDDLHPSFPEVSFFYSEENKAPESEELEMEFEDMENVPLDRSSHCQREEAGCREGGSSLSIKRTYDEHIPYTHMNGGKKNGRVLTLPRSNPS
T1 sequence (P15127 27-759 partner limits assumed): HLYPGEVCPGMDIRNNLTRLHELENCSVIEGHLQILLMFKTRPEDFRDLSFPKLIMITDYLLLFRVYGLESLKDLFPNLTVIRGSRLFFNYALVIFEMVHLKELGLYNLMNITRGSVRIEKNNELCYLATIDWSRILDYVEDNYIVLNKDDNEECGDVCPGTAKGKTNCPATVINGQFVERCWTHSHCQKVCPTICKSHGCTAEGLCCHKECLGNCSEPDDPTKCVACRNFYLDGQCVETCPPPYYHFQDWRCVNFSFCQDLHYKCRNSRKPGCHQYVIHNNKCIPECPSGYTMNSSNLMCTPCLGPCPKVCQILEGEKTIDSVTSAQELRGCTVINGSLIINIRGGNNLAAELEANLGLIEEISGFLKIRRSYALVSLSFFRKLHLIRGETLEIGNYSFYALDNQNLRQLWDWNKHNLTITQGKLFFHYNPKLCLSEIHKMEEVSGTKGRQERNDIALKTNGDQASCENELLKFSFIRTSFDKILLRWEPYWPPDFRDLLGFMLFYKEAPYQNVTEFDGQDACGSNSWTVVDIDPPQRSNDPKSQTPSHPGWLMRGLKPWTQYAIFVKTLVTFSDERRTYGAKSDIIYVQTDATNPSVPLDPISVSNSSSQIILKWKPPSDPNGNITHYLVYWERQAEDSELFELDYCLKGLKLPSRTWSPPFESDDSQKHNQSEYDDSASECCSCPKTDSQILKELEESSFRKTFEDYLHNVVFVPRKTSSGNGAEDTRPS

plasma glucose level post-glucose challenge ([2]; rats, Inhibitor 200 mpk, glucose challenge 2 hrs after Inhibitor A) [mg/dL]	plasma glucose level prior to glucose challenge ([2]; rats, Inhibitor 200 mpk, prior to glucose challenge) [mg/dL]	SMILES	effect on basal and post-glucose challenge glucose [1]	hyperglycemic effects of Inhibitor A after Metformin pretreatment ([2]; rats pretreated for 1 hr with Metformin 450 mpk, then Inhibitor A 200 mpk)
250	150	Cc1cc(N2CCOCC2)cc2[nH]c(-c3c(NCC(O)c4cccc(Cl)c4)cc[nH]c3=O)nc12 (stereo not shown) [Inhibitor A, 4-[2-(3-chloro-phenyl)-2-hydroxy-ethylamino]-3-(4-methyl-6-morpholin-4-yl-1H-benzoimidazol-2-yl)-1H-pyridin-2-one]	more pronounced effect on basal and post-glucose challenge at higher drug concentrations	–
–	–	CN(C)C(=N)N=C(N)N [Metformin, reference compound]	–	completely ameliorated
